Here are results for 24 compounds from US11028066B2, “Inhibitors of lysine specific demethylase-1” (CELGENE QUANTICEL RESEARCH, INC., priority 2014, dated 2021).

One assay addresses full-length human LSD1 (Homo sapiens (Human), UniProt O60341). In words: In vitro enzyme inhibition assay LSD-1 (TR-FRET). The class given is biochemical. The settings on record: H3K4me1-biotin peptide. In outline:
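Demethylase activity of full-length human LSD1 was detected by TR-FRET after 1 hour incubation at room temperature. Excitation was at 320 nm, with emission at 615 nm and 665 nm. IC50 values were derived from the inhibition data.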

Another assay relates to THP-1 (AML) cells. In words: LSD1 CD11b cellular assay (flow cytometry). The settings on record: Homo sapiens, THP-1, 96 h; CD11b expressing cells, 4 days incubation. The class given is cell-based.
For a further assay, the system named is Kasumi-1. In words: Kasumi-1 AML cell line proliferation assay (Cell-MTS assay). The settings on record: Homo sapiens, 168 hours incubation. The class given is cell-based. The source says: Colorimetric cellular assay to assess the ability of LSD-1 small molecule inhibitors to effect the proliferation of the established AML cancer cell line Kasumi-1.
This Cell-MTS assay is a 7-day plate based colorimetric assay which quantifies the amount of newly generated NADH in the presence and absence of test compound. These NADH levels are used as a proxy for the quantification of cancer cell proliferation.
The established cancer cell line Kasumi-1 with a verified p53 mutation were purchased from American Type Culture Collection (ATCC) and routinely passaged according to ATCC published protocols. For routine assay these cells were seeded at a density of 20,000 cells per 96-well. 24 hours after plating, cells received an 11 point dilution of test compound with final concentration ranges from 100 μM to 2.0 nM. Cells are incubated in the presence of compound for 168 hours at 37° C., 5% CO2. At the end of this compound incubation period, 80 μl of media is removed and 20 μL of CellTiter 96® AQueous Non-Radioactive Cell Proliferation Assay solution (Promega) is added. The cells are incubated until the OD490 is >0.6. IC50 values are calculated using the IDBS XLfit software package and include background subtracted OD490 values and normalization to DMSO controls.
Table 5 provides the Kasumi-1 cellular IC50 values of various substituted heterocyclic compounds disclosed herein.

Turning to `CCc1ccc(-c2c(-c3ccc(C#N)cc3)nc(NC[C@H]3CCNC3)c(=O)n2C)cc1` [Example 28, 4-[3-(4-ethylphenyl)-4-methyl-5-oxo-6-{[(3S)-pyrrolidin-3-ylmethyl]amino}-4,5-dihydropyrazin-2-yl]benzonitrile], the IC50 on full-length human LSD1 was below 100 nM; with THP-1 (AML) cells it was 100 to 1000 nM; in the assay on Kasumi-1, at most 100 nM.
For `COc1ccc(-c2c(-c3ccc(C#N)cc3)nc(NC[C@H]3CCNC3)c(=O)n2C)cc1` [Example 31, 4-[3-(4-methoxyphenyl)-4-methyl-5-oxo-6-{[(3S)-pyrrolidin-3-ylmethyl]amino}-4,5-dihydropyrazin-2-yl]benzonitrile], in that order: below 100 nM, below 100 nM and at most 100 nM.
In the same order, the values of `Cn1c(-c2ccc(C3CC3)cc2)c(-c2ccc(C#N)cc2)nc(N2CCC(N)CC2)c1=O` [Example 33, 4-[6-(4-aminopiperidin-1-yl)-3-(4-cyclopropylphenyl)-4-methyl-5-oxo-4,5-dihydropyrazin-2-yl]benzonitrile] are below 100 nM, below 100 nM and at most 100 nM.
For `COCCn1c(-c2ccc(C)cc2)c(-c2ccc(C#N)cc2)nc(N2CCC(N)CC2)c1=O` [Example 36, 4-[6-(4-amino-piperidin-1-yl)-4-(2-methoxy-ethyl)-5-oxo-3-p-tolyl-4,5-dihydro-pyrazin-2-yl]-benzonitrile], in that order: below 100 nM, below 100 nM and at most 100 nM.
`Cc1ccc(-c2c(-c3ccc(C#N)cc3)nc(N3CCC(N)CC3)c(=O)n2CCCO)cc1` [Example 40, 4-[6-(4-amino-piperidin-1-yl)-4-(3-hydroxy-propyl)-5-oxo-3-p-tolyl-4,5-dihydro-pyrazin-2-yl]-benzonitrile]: the figures for the IC50 against full-length human LSD1, with THP-1 (AML) cells and in the assay with Kasumi-1 were below 100 nM, below 100 nM and at most 100 nM, respectively.
For `Cc1ccc(-c2c(-c3ccc(C#N)c(F)c3)nc(N3CCC(N)CC3)c(=O)n2CCO)cc1` [Example 42, 4-[6-(4-amino-piperidin-1-yl)-4-(2-hydroxy-ethyl)-5-oxo-3-p-tolyl-4,5-dihydro-pyrazin-2-yl]-2-fluoro-benzonitrile], the IC50 against full-length human LSD1 was below 100 nM; with THP-1 (AML) cells, below 100 nM; with Kasumi-1, at most 100 nM.
On to `Cc1ccc(-c2c(-c3ccc(C#N)c(F)c3)nc(NC[C@H]3CCNC3)c(=O)n2CCO)cc1` [Example 44, 4-(6-{[((3S)-pyrrolidin-3-yl)methyl]amino}-4-(2-hydroxyethyl)-3-(4-methylphenyl)-5-oxo(4-hydropyrazin-2-yl))-2-fluorobenzenecarbonitrile], for which the concentration for half-maximal inhibition (IC50) is below 100 nM against full-length human LSD1, below 100 nM in the assay with THP-1 (AML) cells and at most 100 nM in the assay on Kasumi-1.
On to `Cc1ccc(-c2c(-c3ccc(C#N)c(F)c3)nc(N3CCC(N)CC3)c(=O)n2CCCO)cc1` [Example 46, 4-[6-(4-aminopiperidyl)-4-(3-hydroxypropyl)-3-(4-methylphenyl)-5-oxo(4-hydropyrazin-2-yl)]-2-fluorobenzenecarbonitrile], for which the half-inhibitory concentration (IC50) is below 100 nM against full-length human LSD1, below 100 nM in the assay with THP-1 (AML) cells and at most 100 nM with Kasumi-1.
`COc1ccc(-c2c(-c3ccc(C#N)c(F)c3)nc(NC[C@H]3CCNC3)c(=O)n2C)cc1` [Example 55, 2-fluoro-4-{3-(4-methoxy-phenyl)-4-methyl-5-oxo-6-[((3S)-pyrrolidin-3-ylmethyl)-amino]-4,5-dihydro-pyrazin-2-yl}-benzonitrile]: the IC50 against full-length human LSD1 was below 100 nM; in the assay with THP-1 (AML) cells, below 100 nM; in the assay on Kasumi-1, at most 100 nM.
`Cn1c(-c2ccc3c(c2)ncn3C)c(-c2ccc(C#N)c(F)c2)nc(N2CCC(N)CC2)c1=O` [Example 60, 4-[6-(4-amino-piperidin-1-yl)-4-methyl-3-(1-methyl-1H-benzoimidazol-5-yl)-5-oxo-4,5-dihydro-pyrazin-2-yl]-2-fluoro-benzonitrile]: the IC50 is below 100 nM against full-length human LSD1, below 100 nM with THP-1 (AML) cells and at most 100 nM in the assay with Kasumi-1.
Consider `Cc1ccc(-c2c(-c3ccc(C#N)c(F)c3)nc(N3CCC(N)CC3)c(=O)n2C)cn1` [Example 66, 4-[6-(4-Amino-piperidin-1-yl)-4-methyl-3-(6-methyl-pyridin-3-yl)-5-oxo-4,5-dihydro-pyrazin-2-yl]-2-fluoro-benzonitrile], for which the figures for the IC50 against full-length human LSD1, in the assay with THP-1 (AML) cells and in the assay on Kasumi-1 were below 100 nM, below 100 nM and at most 100 nM, respectively.
On to `COc1ccc(-c2c(-c3ccc(C#N)c(F)c3)cc(NC[C@H]3CCNC3)c(=O)n2C)cc1` [Example 70, (S)-2-fluoro-4-(2-(4-methoxyphenyl)-1-methyl-6-oxo-5-(pyrrolidin-3-ylmethylamino)-1,6-dihydropyridin-3-yl)benzonitrile], for which the concentration for half-maximal inhibition (IC50) on full-length human LSD1 is below 100 nM; with THP-1 (AML) cells, below 100 nM; with Kasumi-1, at most 100 nM.
On to `Cn1c(-c2ccc(C3CC3)cc2)c(-c2ccc(C#N)c(F)c2)cc(NC[C@H]2CCNC2)c1=O` [Example 74, (S)-4-(2-(4-cyclopropylphenyl)-1-methyl-6-oxo-5-(pyrrolidin-3-ylmethylamino)-1,6-dihydropyridin-3-yl)-2-fluorobenzonitrile], for which the IC50 on full-length human LSD1 is below 100 nM; with THP-1 (AML) cells, below 100 nM; in the assay with Kasumi-1, at most 100 nM.
Take `Cc1ccc(-c2c(-c3ccc(C#N)cc3)cc(N3CCC(N)CC3)c(=O)n2C)cc1` [Example 75, 4-[5-(4-aminopiperidin-1-yl)-1-methyl-2-(4-methylphenyl)-6-oxopyridin-3-yl]benzonitrile]: the half-inhibitory concentration (IC50) at full-length human LSD1 was below 100 nM; in the assay on THP-1 (AML) cells, below 100 nM; with Kasumi-1, at most 100 nM.
On to `Cc1ccc(-c2c(-c3ccc(C#N)c(F)c3)cc(N3CCC(N)CC3)c(=O)n2C)cc1` [Example 76, 4-[5-(4-aminopiperidin-1-yl)-1-methyl-2-(4-methylphenyl)-6-oxopyridin-3-yl]-2-fluorobenzonitrile], for which the IC50 at full-length human LSD1 was below 100 nM; in the assay with THP-1 (AML) cells it was below 100 nM; with Kasumi-1, at most 100 nM.
Turning to `COc1ccc(-c2c(-c3ccc(C#N)cc3)cc(N3CCC(N)CC3)c(=O)n2C)cc1` [Example 77, 4-[5-(4-aminopiperidin-1-yl)-2-(4-methoxyphenyl)-1-methyl-6-oxopyridin-3-yl]benzonitrile], the IC50 against full-length human LSD1 is below 100 nM; with THP-1 (AML) cells, below 100 nM; with Kasumi-1, at most 100 nM.
For the compound `CCn1c(-c2ccc(OC)cc2)c(-c2ccc(C#N)cc2)cc(N2CCC(N)CC2)c1=O` [Example 82, 4-[5-(4-aminopiperidin-1-yl)-1-ethyl-2-(4-methoxyphenyl)-6-oxopyridin-3-yl]benzonitrile], the IC50 at full-length human LSD1 and in the assay with THP-1 (AML) cells was below 100 nM in each case.
As to `COc1ccc(-c2c(-c3ccc(C#N)cc3)cc(N3CCC(N)CC3)c(=O)n2C)cc1F` [Example 83, 4-[5-(4-aminopiperidin-1-yl)-2-(3-fluoro-4-methoxyphenyl)-1-methyl-6-oxopyridin-3-yl]benzonitrile], the IC50 against full-length human LSD1 is below 100 nM; in the assay with THP-1 (AML) cells, below 100 nM; with Kasumi-1, at most 100 nM.
Regarding `COc1ccc(-c2c(-c3ccc(C#N)c(F)c3)cc(N3CCC(N)CC3)c(=O)n2CC2CC2)cc1` [Example 85, 4-[5-(4-aminopiperidin-1-yl)-1-(cyclopropylmethyl)-2-(4-methoxyphenyl)-6-oxopyridin-3-yl]-2-fluorobenzonitrile], the IC50 against full-length human LSD1 and with THP-1 (AML) cells was below 100 nM each time.
Turning to `CNC1CCN(c2cc(-c3ccc(C#N)c(F)c3)c(-c3ccc(OC)c(F)c3)n(C)c2=O)CC1` [Example 86, 2-fluoro-4-[2-(3-fluoro-4-methoxyphenyl)-1-methyl-5-[4-(methylamino)piperidin-1-yl]-6-oxopyridin-3-yl]benzonitrile], the IC50 against full-length human LSD1 and with THP-1 (AML) cells was below 100 nM in each case.
As to `COc1ccc(-c2c(-c3ccc(C#N)c(F)c3)nc(N3CCC(N)CC3)c(=O)n2CC(N)=O)cc1` [Example 88, 2-[3-(4-aminopiperidyl)-5-(4-cyano-3-fluorophenyl)-6-(4-methoxyphenyl)-2-oxohydropyrazinyl]acetamide], the half-maximal inhibitory concentration (IC50) at full-length human LSD1 and with THP-1 (AML) cells was below 100 nM throughout.
For `COc1ccc(-c2c(-c3ccc(C#N)c(F)c3)nc(N3CCC(N)CC3)c(=O)n2CCC(N)=O)cc1` [Example 89, 3-[3-(4-aminopiperidyl)-5-(4-cyano-3-fluorophenyl)-6-(4-methoxyphenyl)-2-oxohydropyrazinyl]propanamide], the half-inhibitory concentration (IC50) at full-length human LSD1 and in the assay with THP-1 (AML) cells was below 100 nM each time.
For `COc1ccc(-c2c(-c3ccc(C#N)c(F)c3)nc(N3CCC(N)CC3)c(=O)n2CCCC(N)=O)cc1` [Example 90, 4-[3-(4-aminopiperidyl)-5-(4-cyano-3-fluorophenyl)-6-(4-methoxyphenyl)-2-oxohydropyrazinyl]butanamide], the 50% inhibitory concentration (IC50) at full-length human LSD1 and with THP-1 (AML) cells was below 100 nM each time.
As for `CNC1CCN(c2cc(-c3ccc(C#N)cc3)c(-c3ccc(N(C)C)nc3)n(C)c2=O)CC1` [Example 92, 4-{2-[6-(dimethylamino)(3-pyridyl)]-1-methyl-5-[4-(methylamino)piperidyl]-6-oxo-3-hydropyridyl}benzenecarbonitrile], the half-maximal inhibitory concentration (IC50) at full-length human LSD1 and with THP-1 (AML) cells was below 100 nM in each case.
